Structures can show the parent of a compound that is named as a salt.

The term melting point denotes the temperature of the solid-liquid transition. In turn, `CCC(CC)(NC(=O)c1cnn2c1NC(c1ccccc1)CC21CCCCC1)c1ccc(C(F)(F)F)cc1` (stereo not shown) [Example 200, N-(1-ethyl-1-(4-(trifluoromethyl)phenyl)propyl)-5′-phenyl-5′,6′-dihydro-4′H-spiro[cyclohexane-1,7′-pyrazolo[1,5-a]pyrimidine]-3′-carboxamide] returned a melting point of 274 to 275 °C.

The compound `CCOC(=O)COc1ccc(C(CC)(CC)NC(=O)c2cnn3c2NC(c2ccccc2)CC3(C)C)cc1` (stereo not shown) [Example 730, ethyl (4-(1-(((7,7-dimethyl-5-phenyl-4,5,6,7-tetrahydropyrazolo[1,5-a]pyrimidin-3-yl)carbonyl)amino)-1-ethylpropyl)phenoxy)acetate] came in with a melting point of 178 to 179 °C.

`CCCCOC(=O)CCCOc1ccc(C(CC)(CC)NC(=O)c2cnn3c2NC(c2ccccc2)CC3(C)C)cc1` (stereo not shown) [Example 818, butyl 4-(4-(1-(((7,7-dimethyl-5-phenyl-4,5,6,7-tetrahydropyrazolo[1,5-a]pyrimidin-3-yl)carbonyl)amino)-1-ethyl-propyl)phenoxy)butanoate] registered a melting point of 133 to 134 °C.

In the case of `O=C(NC1(C(=O)Nc2ccccc2)CCCCC1)c1cnn2c1N[C@H](c1ccccc1)C[C@@H]2C(F)(F)F` (stereo in doubt) [Example 371, N-(1-(anilinocarbonyl)cyclohexyl)-5-phenyl-7-(trifluoromethyl)-4,5,6,7-tetrahydropyrazolo[1,5-a]pyrimidine-3-carboxamide], the melting point is 262 to 263 °C.

Compound `CCCCC(CCCC)(NC(=O)c1cnn2c1NC(c1ccccc1)CC2(C)C)c1ccc(C(F)(F)F)cc1` (stereo not shown) [Example 411, N-(1-butyl-1-(4-(trifluoromethyl)phenyl)pentyl)-7,7-dimethyl-5-phenyl-4,5,6,7-tetrahydropyrazolo[1,5-a]pyrimidine-3-carboxamide] showed a melting point of 113 to 114 °C.

The compound `CCC(CC)(NC(=O)c1c(C)nn2c1N[C@@H](c1ccccc1)CC2(C)C)c1cc(C)n(-c2ccccc2)n1` (as salt: HCl) [Example 1062, (5R)-N-(1-ethyl-1-(5-methyl-1-phenyl-1H-pyrazol-3-yl)propyl)-2,7,7-trimethyl-5-phenyl-4,5,6,7-tetrahydropyrazolo[1,5-a]pyrimidine-3-carboxamide] showed a melting point of 194 to 195 °C.

For `CCC(CC)(NC(=O)c1c(C)nn2c1N[C@@H](c1ccccc1)CC2(C)C)c1ccc(C)c(Cl)c1` (as salt: HCl) [Example 1069, (5R)-N-(1-(3-chloro-4-methylphenyl)-1-ethylpropyl)-2,7,7-trimethyl-5-phenyl-4,5,6,7-tetrahydropyrazolo[1,5-a]pyrimidine-3-carboxamide], the melting point fell in the range of 129 to 130 °C.

The compound `CC1(NC(=O)c2cnn3c2NC(c2ccccc2)CC3(C)C)CCCCC1` (stereo not shown) [Example 586, 7,7-dimethyl-N-(1-methylcyclohexyl)-5-phenyl-4,5,6,7-tetrahydropyrazolo[1,5-a]pyrimidine-3-carboxamide] had a melting point of 170 to 171 °C.

In turn, `CCC(CC)(NC(=O)c1cnn2c1NC(c1ccccc1)CC2(C)C)c1ccc(CCCO)cc1` (stereo not shown) [Example 763, N-(1-ethyl-1-(4-(3-hydroxy-propyl)phenyl)propyl)-7,7-dimethyl-5-phenyl-4,5,6,7-tetrahydropyrazolo[1,5-a]pyrimidine-3-carboxamide] had a melting point of 194 to 195 °C.

Compound `CCC(CC)(NC(=O)c1c(C)nn2c1N[C@H](c1ccccc1Cl)CC2(C)C)c1ccc(C)cc1` (as salt: HCl) [Example 1090, (5S)-5-(2-chlorophenyl)-N-(1-ethyl-1-(4-methylphenyl)propyl)-2,7,7-trimethyl-4,5,6,7-tetrahydropyrazolo[1,5-a]pyrimidine-3-carboxamide] yielded a melting point of 173 to 174 °C.

As for `CCC(CC)(NC(=O)c1cnn2c1NC(c1ccccc1)CC2(C)C)c1ccc(Br)cc1` (stereo not shown) [Example 413, N-(1-(4-bromophenyl)-1-ethylpropyl)-7,7-dimethyl-5-phenyl-4,5,6,7-tetrahydropyrazolo[1,5-a]pyrimidine-3-carboxamide], the melting point is 129 to 130 °C.

The compound `CCC1(CC)CC(c2ccccc2)Nc2c(C(=O)O)cnn21` (stereo not shown) [Example 37, 7,7-diethyl-5-phenyl-4,5,6,7-tetrahydropyrazolo[1,5-a]pyrimidine-3-carboxylic acid] came in with a melting point of 158 to 160 °C.

Compound `CCC(CC)(NC(=O)c1c(C)nn2c1NC(c1cccc(OC)c1)CC2(C)C)c1ccc(C)cc1` (stereo not shown) (as salt: HCl) [Example 966, N-(1-ethyl-1-(4-methylphenyl)propyl)-5-(3-methoxyphenyl)-2,7,7-trimethyl-4,5,6,7-tetrahydropyrazolo[1,5-a]pyrimidine-3-carboxamide] came in with a melting point of 146 °C.

With `CCC(CC)(NC(=O)c1cnn2c1NC(c1ccco1)CC2(C)C)c1ccc(C(F)(F)F)cc1` (stereo not shown) [Example 693, N-(1-ethyl-1-(4-(trifluoro-methyl)phenyl)propyl)-5-(2-furyl)-7,7-dimethyl-4,5,6,7-tetrahydropyrazolo[1,5-a]pyrimidine-3-carboxamide], the melting point was in the range of 212 to 214 °C.

`CCc1nn2c(c1C(=O)NC(CC)(CC)c1ccc(Cl)cc1)NC(c1ccccc1)CC2(C)C` (stereo not shown) [Example 758, N-(1-(4-chlorophenyl)-1-ethylpropyl)-2-ethyl-7,7-dimethyl-5-phenyl-4,5,6,7-tetrahydropyrazolo[1,5-a]pyrimidine-3-carboxamide] showed a melting point of 183 to 184 °C.

Regarding `O=C(c1cnn2c1N[C@H](c1ccccc1)C[C@@H]2C(F)(F)F)N(C1CCCCC1)C1CCCCC1` (stereo in doubt) [Example 373, N,N-dicyclohexyl-5-phenyl-7-(trifluoromethyl)-4,5,6,7-tetrahydropyrazolo[1,5-a]pyrimidine-3-carboxamide], the melting point was in the range of 243 to 244 °C.

Regarding `C=Cc1ccc(C(CC)(CC)NC(=O)c2cnn3c2NC(c2ccccc2)CC3(C)C)cc1` (stereo not shown) [Example 645, N-(1-ethyl-1-(4-vinylphenyl)propyl)-7,7-dimethyl-5-phenyl-4,5,6,7-tetrahydropyrazolo[1,5-a]pyrimidine-3-carboxamide], the melting point lay within 155 to 156 °C.

Consider `CCC(CC)(NC(=O)c1c(C)nn2c1NC(c1ccccc1)CC2(C)C)c1ccc(Br)cc1` (stereo not shown) (as salt: HCl) [Example 738, N-(1-(4-bromophenyl)-1-ethylpropyl)-2,7,7-trimethyl-5-phenyl-4,5,6,7-tetrahydropyrazolo[1,5-a]pyrimidine-3-carboxamide], for which the melting point fell in the range of 185 to 187 °C.

In turn, `CCC(NC(=O)c1cnn2c1NC(c1ccccc1)CC2(C)C)c1ccccc1Br` (stereo not shown) [Example 416, N-(1-(2-bromophenyl)propyl)-7,7-dimethyl-5-phenyl-4,5,6,7-tetrahydropyrazolo[1,5-a]pyrimidine-3-carboxamide] registered a melting point of 200 to 201 °C.

Regarding `CCC(CC)(NC(=O)c1cnn2c1NC(c1ccc(C)cc1C)CC2(C)C)c1ccc(C)cc1` (stereo not shown) (as salt: HCl) [Example 970, 5-(2,4-dimethylphenyl)-N-(1-ethyl-1-(4-methylphenyl)propyl)-7,7-dimethyl-4,5,6,7-tetrahydropyrazolo[1,5-a]pyrimidine-3-carboxamide], the melting point lay within 150 to 151 °C.

Compound `CCC1(NC(=O)c2cnn3c2NC(c2ccccc2)CC3(C)C)CCCCCC1` (stereo not shown) [Example 622, N-(1-ethylcycloheptyl)-7,7-dimethyl-5-phenyl-4,5,6,7-tetrahydropyrazolo[1,5-a]pyrimidine-3-carboxamide] returned a melting point of 129 to 130 °C.

Compound `CCC(CC)(NC(=O)c1c(C)nn2c1NC(c1ccc(C)cc1)CC2(C)C)c1ccc(C)cc1` (stereo not shown) (as salt: HCl) [Example 973, N-(1-ethyl-1-(4-methylphenyl)propyl)-2,7,7-trimethyl-5-(4-methylphenyl)-4,5,6,7-tetrahydropyrazolo[1,5-a]pyrimidine-3-carboxamide] came in with a melting point of 152 to 154 °C.

On to `CCC1(CC)C[C@@H](OCc2ccccc2)CN1C(=O)c1cnn2c1N[C@@H](c1ccccc1)CC2(C)C` [Example 1103, (5R)-3-(((4R)-4-(benzyloxy)-2,2-diethyl-1-pyrrolidinyl)carbonyl)-7,7-dimethyl-5-phenyl-4,5,6,7-tetrahydropyrazolo[1,5-a]pyrimidine], for which the melting point lay within 118 to 120 °C.

With `CCC(CC)(NC(=O)c1cnn2c1NC(c1ccccc1)CC2(C)C)c1ccc(COC(C)=O)cc1` (stereo not shown) [Example 737, 4-(1-(((7,7-dimethyl-5-phenyl-4,5,6,7-tetrahydropyrazolo[1,5-a]pyrimidin-3-yl)carbonyl)amino)-1-ethylpropyl)benzyl acetate], the melting point is 185 to 186 °C.

`Cc1nn2c(c1C(=O)OC1C(C)(C)[C@H]3CC[C@]1(C)C3)NC(c1ccccc1)CC2(C)C` (stereo partly drawn) (as salt: HCl) [Example 1141, (1R,4S)-1,3,3-trimethylbicyclo[2.2.1]hept-2-yl 2,7,7-trimethyl-5-phenyl-4,5,6,7-tetrahydropyrazolo[1,5-a]pyrimidine-3-carboxylate] came in with a melting point of 149 to 150 °C.

In turn, `CCC(CC)(NC(=O)c1cnn2c1NC(c1ccccc1OC)CC2(C)C)c1ccc(C(F)(F)F)cc1` (stereo not shown) [Example 590, N-(1-ethyl-1-(4-(trifluoromethyl)phenyl)propyl)-5-(2-methoxyphenyl)-7,7-dimethyl-4,5,6,7-tetrahydropyrazolo[1,5-a]pyrimidine-3-carboxamide] returned a melting point of 211 to 213 °C.

`COc1ccc(C2CC(C(F)(F)F)n3ncc(C(=O)NC45CC6CC(CC(C6)C4)C5)c3N2)cc1` (stereo not shown) [Example 202, N-(1-adamantyl)-5-(4-methoxyphenyl)-7-(trifluoromethyl)-4,5,6,7-tetrahydropyrazolo[1,5-a]pyrimidine-3-carboxamide] registered a melting point of 241 to 243 °C.

`CCC(CC)(NC(=O)c1cnn2c1NC(c1ccccc1)CC2(C)C)c1ccc(C(=O)OC)cc1` (stereo not shown) [Example 678, methyl 4-(1-(((7,7-dimethyl-5-phenyl-4,5,6,7-tetrahydropyrazolo[1,5-a]pyrimidin-3-yl)carbonyl)amino)-1-ethylpropyl)benzoate] gave a melting point of 180 to 181 °C.

(Values after patent publication US9447100B2, “Substituted pyrazolo[1,5-A] pyrimidines as calcium receptor modulating agents” (Takeda Pharmaceutical Company Limited, priority 2002, dated 2016).)
